In ChEMBL document CHEMBL1157377, “Atorvastatin is 10-fold more active in vitro than other statins against Plasmodium falciparum” (Antimicrob Agents Chemother, 2007):
pIC50: −log10 of the molar value.

Key:
[1] = system: Plasmodium falciparum; assay: Antiplasmodial activity against chloroquine-resistant Plasmodium falciparum W2; format: functional, organism-based
[2] = system: Plasmodium falciparum; assay: Antiplasmodial activity against chloroquine-resistant Plasmodium falciparum Bre1; format: functional, organism-based
[3] = system: Plasmodium falciparum; assay: Antiplasmodial activity against chloroquine-sensitive Plasmodium falciparum D6; format: functional, organism-based
[4] = system: Plasmodium falciparum; assay: Antiplasmodial activity against chloroquine-sensitive Plasmodium falciparum 3D7; format: functional, organism-based
[5] = system: Plasmodium falciparum; assay: Antiplasmodial activity against chloroquine-sensitive Plasmodium falciparum IMT031; format: functional, organism-based
[6] = system: Plasmodium falciparum; assay: Antiplasmodial activity against chloroquine-resistant Plasmodium falciparum FCR3; format: functional, organism-based
[7] = system: L6; assay: Toxicity against rat L6 cells assessed as induction of cell death at 100 uM; format: cell-based; details: l6, 100 µM

CC[C@H](C)C(=O)O[C@H]1CCC=C2C=C[C@H](C)[C@H](CC[C@@H](O)C[C@@H](O)CC(=O)O)[C@H]21 [listing 1 of 2 here]
pIC50 [1]: < 3.70
pIC50 [2]: 3.99

CC[C@H](C)C(=O)O[C@H]1C[C@H](O)C=C2C=C[C@H](C)[C@H](CC[C@@H](O)C[C@@H](O)CC(=O)O)[C@H]21 [PRAVASTATIN SODIUM]
pIC50 [3]: < 3.70
pIC50 [4]: < 3.70
pIC50 [5]: < 3.70
pIC50 ([1]; Plasmodium falciparum, W2): < 3.70
pIC50 ([2]; Plasmodium falciparum, Bre1): < 3.70
pIC50 [6]: < 3.70

CC[C@H](C)C(=O)O[C@H]1CCC=C2C=C[C@H](C)[C@H](CC[C@@H](O)C[C@@H](O)CC(=O)O)[C@H]21 [listing 2 of 2 here]
pIC50 [3]: < 3.70
pIC50 [4]: < 3.70
pIC50 [5]: < 3.70
pIC50 [1]: 4.05
pIC50 ([2]; Plasmodium falciparum, Bre1): < 3.70
pIC50 [6]: < 3.70

CC[C@H](C)C(=O)O[C@H]1C[C@@H](C)C=C2C=C[C@H](C)[C@H](CC[C@@H]3C[C@@H](O)CC(=O)O3)[C@H]21 [LOVASTATIN]
pIC50 [3]: < 3.70
pIC50 [4]: < 3.70
pIC50 [5]: < 3.70
pIC50 ([1]; Plasmodium falciparum, W2): < 3.70
pIC50 ([2]; Plasmodium falciparum, Bre1): < 3.70
pIC50 [6]: < 3.70

CCC(C)(C)C(=O)O[C@H]1C[C@@H](C)C=C2C=C[C@H](C)[C@H](CC[C@@H]3C[C@@H](O)CC(=O)O3)[C@H]21 [SIMVASTATIN]
pIC50 [3]: < 3.70
pIC50 [4]: < 3.70
pIC50 [5]: < 3.70
pIC50 ([1]; Plasmodium falciparum, W2): < 3.70
pIC50 ([2]; Plasmodium falciparum, Bre1): < 3.70
pIC50 [6]: < 3.70

CC(C)c1c(C(=O)Nc2ccccc2)c(-c2ccccc2)c(-c2ccc(F)cc2)n1CC[C@@H](O)C[C@@H](O)CC(=O)O [ATORVASTATIN CALCIUM]
pIC50 [3]: 5.24
IC90 [3]: 18.1 µM
pIC50 [4]: 4.93
IC90 [4]: 39 µM
pIC50 [5]: 5.28
IC90 [5]: 15.8 µM
pIC50 ([1]; Plasmodium falciparum, W2): 5.32
IC90 ([1]; Plasmodium falciparum, W2): 14.8 µM
pIC50 ([2]; Plasmodium falciparum, Bre1): 5.24
IC90 ([2]; Plasmodium falciparum, Bre1): 24 µM
pIC50 [6]: 5.29
IC90 [6]: 23.6 µM

CCC(C)(C)C(=O)O[C@H]1C[C@@H](C)C=C2C=C[C@H](C)[C@H](CC[C@@H](O)C[C@@H](O)CC(=O)O)[C@H]21
pIC50 [3]: 4.29
pIC50 [4]: 4.16
pIC50 [5]: 4.43
pIC50 ([1]; Plasmodium falciparum, W2): 4.23
pIC50 ([2]; Plasmodium falciparum, Bre1): 4.32
pIC50 [6]: 4.12

CC[C@H](C)C(=O)O[C@H]1C[C@@H](C)C=C2C=C[C@H](C)[C@H](CC[C@@H](O)C[C@@H](O)CC(=O)O)[C@H]21
pIC50 [3]: 4.35
pIC50 [4]: 4.02
pIC50 [5]: 4.24
pIC50 ([1]; Plasmodium falciparum, W2): 3.99
pIC50 ([2]; Plasmodium falciparum, Bre1): 4.28
pIC50 [6]: 4.36

CC(C)n1c(/C=C/C(O)CC(O)CC(=O)O)c(-c2ccc(F)cc2)c2ccccc21 (stereo not drawn) [FLUVASTATIN SODIUM]
pIC50 [3]: 4.03
pIC50 [4]: 3.97
pIC50 [5]: 4.06
pIC50 ([1]; Plasmodium falciparum, W2): 4.04
pIC50 ([2]; Plasmodium falciparum, Bre1): 4.03
pIC50 [6]: 3.94

CC(C)c1c(C(=O)Nc2ccccc2)c(-c2ccccc2)c(-c2ccc(F)cc2)n1CC[C@@H](O)C[C@@H](O)CC(=O)O [ATORVASTATIN]
Activity [7]: 27%

CC[C@H](C)C(=O)O[C@H]1CCC=C2C=C[C@H](C)[C@H](CC[C@@H]3C[C@@H](O)CC(=O)O3)[C@H]21 [MEVASTATIN]
pIC50 [3]: < 3.70
pIC50 [4]: < 3.70
pIC50 [5]: < 3.70
pIC50 ([1]; Plasmodium falciparum, W2): < 3.70
pIC50 ([2]; Plasmodium falciparum, Bre1): < 3.70
pIC50 [6]: < 3.70
